Measured values reported in US20250376458A1, “COMPOUNDS AND METHODS FOR YAP/TEAD MODULATION AND INDICATIONS THEREFOR” (OPNA BIO SA, priority 2023, published 2025).

These compounds were tested on TEAD-dependent transcription (assay: TEAD-dependent transcription cell-based luciferase reporter assay (MSTO-211H+12XGTIIC)). Conditions: Homo sapiens, MSTO-211H, 24 h, MSTO-211H+12XGTIIC cell line, 24 hours compound incubation, luminescence normalized to cell viability fluorescence signal; read-out: MSTO-211H GMean IC50 (uM) Cell Assay Reporter Cell Variant: TEAD.
Design: species or system human
From the text: Determine Inhibitor Activity Against TEAD-Dependent Transcription in a Cell-Based Reporter Assay
The human mesothelioma cell line MSTO-211H was stably transfected with a pGL4.21 plasmid containing a synthetic promoter with 12 copies of the GTIIC TEAD response element that drives the expression of a luciferase reporter gene i using Lipofectamine transfection reagent (Thermo Fisher). Transfected cells were selected using puromycin and single cell clones expressing this construct (referred to as MSTO-211H+12XGTIIC) were generated by limiting dilution. MSTO-211H cells was characterized by genetic alterations in key components of the Hippo pathway^2, resulting in up-regulation of YAP/TEAD-mediated transcription. […] To evaluate TEAD inhibitors, the MSTO-211H+12XGTIIC cell line was seeded in a 96-well plate in 50 μL of culture media at 1×10^4 cells per well and incubated at 37° C. overnight. Serial dilutions of compounds (in total volume of 50 μL of culture media) were added to the cells and incubated at 37° C. for 24 hours. Each plate included cells treated with DMSO as high controls and cells treated with 20 μM of the reference compound K-975 (a known TEAD inhibitor)^3 as low controls. Cell viability was assayed by the addition of 25 μL of CellTiter-Fluor reagent (Promega) followed by a 30-minute incubation at 37° C. and quantification of the fluorescence signal (Ex400/Em505). Subsequently, luciferase expression was assayed by the addition of 25 μL of ONE-Glo reagent (Promega) followed by a 10-minute incubation at room temperature and quantification of the luminescence signal. The luminescence signal was normalized to the fluorescence signal to correct for any loss in cell viability over the 24-hour compound incubation period. The percentage of inhibition of normalized luminescence signal, indicative of compound-mediated inhibition of TEAD-dependent transcription, at individual compound concentrations relative to high and low controls was calculated. The data were analyzed by using nonlinear regression to generate IC50 values for individual compounds.

Structure (SMILES) | IC50 [µM]
CC(C)S(=O)(=O)c1nc(C(=O)N2CCc3c(cccc3Oc3ccc(C(F)(F)F)cc3)C2)c[nH]1 [O-0021, (2-(isopropylsulfonyl)-1H-imidazol-4-yl)(5-(4-(trifluoromethyl)phenoxy)-3,4-dihydroisoquinolin-2(1H)-yl)methanone] | 0.001 to 10
CS(=O)(=O)c1nc(C(=O)N2CCc3cc(Oc4ccc(C(F)(F)F)cc4F)ccc3C2)c[nH]1 [O-0075, (6-(2-fluoro-4-(trifluoromethyl)phenoxy)-3,4-dihydroisoquinolin-2(1H)-yl)(2-(methylsulfonyl)-1H-imidazol-4-yl)methanone] | 0.001 to 10
CCS(=O)(=O)c1nc(C(=O)N2CCc3c(cccc3Nc3ccc(C(F)(F)F)c(F)c3)C2)c[nH]1 [O-0025, (2-(ethylsulfonyl)-1H-imidazol-4-yl)(5-((3-fluoro-4-(trifluoromethyl)phenyl)amino)-3,4-dihydroisoquinolin-2(1H)-yl)methanone] | > 100
CC(C)S(=O)(=O)c1nc(C(=O)N2CCc3c(cccc3Nc3ccc(C(F)(F)F)c(F)c3)C2)c[nH]1 [O-0027, (5-((3-fluoro-4-(trifluoromethyl)phenyl)amino)-3,4-dihydroisoquinolin-2(1H)-yl)(2-(isopropylsulfonyl)-1H-imidazol-4-yl)methanone] | 0.001 to 10
CCS(=O)(=O)c1nc(C(=O)N2CCc3c(cccc3Oc3ccc(C(F)(F)F)cc3)C2)c[nH]1 [O-0011, (2-(ethylsulfonyl)-1H-imidazol-4-yl)(5-(4-(trifluoromethyl)phenoxy)-3,4-dihydroisoquinolin-2(1H)-yl)methanone] | 10 to 100
CS(=O)(=O)c1nc(C(=O)N2CCc3c(ncnc3Oc3ccc(C(F)(F)F)cc3F)C2)c[nH]1 [O-0120, (4-(2-fluoro-4-(trifluoromethyl)phenoxy)-5,8-dihydropyrido[3,4-d]pyrimidin-7(6H)-yl)(2-(methylsulfonyl)-1H-imidazol-4-yl)methanone] | 0.001 to 10
CCCS(=O)(=O)c1nc(C(=O)N2CCc3c(cccc3Nc3ccc(C(F)(F)F)cc3)C2)c[nH]1 [O-0020, (2-(propylsulfonyl)-1H-imidazol-4-yl)(5-((4-(trifluoromethyl)phenyl)amino)-3,4-dihydroisoquinolin-2(1H)-yl)methanone] | 0.001 to 10
CCCS(=O)(=O)c1nc(C(=O)N2CCc3cc(Oc4ccc(C(F)(F)F)cc4)ccc3C2)c[nH]1 [O-0081, (2-(propylsulfonyl)-1H-imidazol-4-yl)(6-(4-(trifluoromethyl)phenoxy)-3,4-dihydroisoquinolin-2(1H)-yl)methanone] | 0.001 to 10
CS(=O)(=O)c1nc(C(=O)N2CCc3c(cccc3Oc3ccc(C(F)(F)F)cc3F)C2)c[nH]1 [O-0118, (5-(2-fluoro-4-(trifluoromethyl)phenoxy)-3,4-dihydroisoquinolin-2(1H)-yl)(2-(methylsulfonyl)-1H-imidazol-4-yl)methanone] | 0.001 to 10
CS(=O)(=O)c1nc(C(=O)N2CCc3c(cccc3Nc3ccc(C(F)(F)F)cc3F)C2)c[nH]1 [O-0010, (5-((2-fluoro-4-(trifluoromethyl)phenyl)amino)-3,4-dihydroisoquinolin-2(1H)-yl)(2-(methylsulfonyl)-1H-imidazol-4-yl)methanone] | 0.001 to 10
CNS(=O)(=O)c1nc(C(=O)N2CCc3cc(Oc4ccc(C(F)(F)F)cc4)ccc3C2)c[nH]1 [O-0111, N-methyl-4-(6-(4-(trifluoromethyl)phenoxy)-1,2,3,4-tetrahydroisoquinoline-2-carbonyl)-1H-imidazole-2-sulfonamide] | 0.001 to 10
Cn1c(C(=O)N2CCc3c(cccc3Nc3ccc(C(F)(F)F)cn3)C2)cnc1S(C)(=O)=O [O-0006, (1-methyl-2-(methylsulfonyl)-1H-imidazol-5-yl)(5-((5-(trifluoromethyl)pyridin-2-yl)amino)-3,4-dihydroisoquinolin-2(1H)-yl)methanone] | 0.001 to 10
CS(=O)(=O)c1ncc(C(=O)N2CCc3ccc(Oc4ccc(C(F)(F)F)c(F)c4)cc3C2)[nH]1 [O-0123, (7-(3-fluoro-4-(trifluoromethyl)phenoxy)-3,4-dihydroisoquinolin-2(1H)-yl)(2-(methylsulfonyl)-1H-imidazol-5-yl)methanone] | 10 to 100
Cn1cc(C(=O)N2CCc3c(cccc3Nc3ccc(C(F)(F)F)cc3)C2)nc1S(C)(=O)=O [O-0007, (1-methyl-2-(methylsulfonyl)-1H-imidazol-4-yl)(5-((4-(trifluoromethyl)phenyl)amino)-3,4-dihydroisoquinolin-2(1H)-yl)methanone] | 0.001 to 10

Same assay, conditions: MSTO-211H+12XGTIIC cell line, 24 hours compound incubation, luminescence normalized to cell viability fluorescence signal; read-out: MSTO-211H GMean IC50 (uM) Cell Assay Reporter Cell Variant: TEAD

Structure (SMILES) | IC50 [µM]
CS(=O)(=O)c1nc(C(=O)N2CCc3ccc(Nc4ccc(C(F)(F)F)c(F)c4)cc3C2)c[nH]1 [O-0018, (7-((3-fluoro-4-(trifluoromethyl)phenyl)amino)-3,4-dihydroisoquinolin-2(1H)-yl)(2-(methylsulfonyl)-1H-imidazol-4-yl)methanone] | 10 to 100
CS(=O)(=O)c1nc(C(=O)N2CCc3c(ncnc3Oc3ccc(C(F)(F)F)cc3)C2)c[nH]1 [O-0131, (2-(methylsulfonyl)-1H-imidazol-4-yl)(4-(4-(trifluoromethyl)phenoxy)-5,8-dihydropyrido[3,4-d]pyrimidin-7(6H)-yl)methanone] | 10 to 100
CCS(=O)(=O)c1nc(C(=O)N2CCc3c(ncnc3Oc3ccc(C(F)(F)F)cc3F)C2)c[nH]1 [O-0116, (2-(ethylsulfonyl)-1H-imidazol-4-yl)(4-(2-fluoro-4-(trifluoromethyl)phenoxy)-5,8-dihydropyrido[3,4-d]pyrimidin-7(6H)-yl)methanone] | 0.001 to 10
CS(=O)(=O)c1nc(C(=O)N2CCc3c(ncnc3Oc3ccc(C(F)(F)F)c(F)c3)C2)c[nH]1 [O-0115, (4-(3-fluoro-4-(trifluoromethyl)phenoxy)-5,8-dihydropyrido[3,4-d]pyrimidin-7(6H)-yl)(2-(methylsulfonyl)-1H-imidazol-4-yl)methanone] | 0.001 to 10
